Common to all, as to format: biochemical
One test has as its target T1, human α-synuclein (Homo sapiens, UniProt P37840).
T1 construct: made in house; host or cells: E. coli
Put plainly: In vitro Thioflavin T assay of α-synuclein aggregation. The note with it: for inhibition at 1 µM: compounds at 1 μM. The protocol:
In Vitro Thioflavin T Assay to Determine the Effects of Compounds on α-Synuclein Aggregation.
The ammonium sulfate pellet was washed with an equal volume of 100 mM ammonium acetate in ethanol, pelleted via centrifugation, washed twice with ethanol, dried overnight, resuspended in 10 mM Tris pH 7.4, and passed through a 50 kDa cut-off column. The assay was conducted in 96-well black microplates with a single 2 mm bead in each well, 40 μM ThioflavinT, 1% DMSO, 50 μM α-synuclein, 100 mM sodium chloride, 9.3 mM potassium phosphate pH 7.3, 4.6 mM Tris pH 7.4 (added as the solvent for α-synuclein or independently for controls lacking α-synuclein), and compounds at 1 μM or 50 μM. […] Readings were performed hourly for up to 73 hours. The effect of compounds on α-synuclein aggregation in the assay was determined with data from 40 hours, following the plateau of the fluorescent signal in the untreated (no compound) control wells containing α-synuclein. Fluorescence values for each compound with α-synuclein were first adjusted by subtracting the average fluorescence of the compound in the absence of α-synuclein.

In test [1] the target is T2, α-synuclein seeded by E. coli CsgA (Homo sapiens, UniProt P37840).
T2 construct: made in house; host or cells: E. coli NEB 3016 slyD::kan (CsgA, pET11d); E. coli (α-synuclein)
Nature of the test: In vitro Thioflavin T assay of CsgA-seeded α-synuclein aggregation. The protocol: In Vitro Thioflavin T Assay to Determine the Effects of Compounds on CsgA-Seeded α-Synuclein Aggregation.
To induce over-expression of CsgA, 0.5 mM IPTG was added to cultures with an optical density at 600 nm (OD600) of 0.8-1, and induced cells were cultured at 37° C. for 1 hour prior to harvest via centrifugation. […] Buffers with imidazole were freshly prepared prior to the protein purification. Purified CsgA was passed through a 30 kDa molecular weight cut-off filter and through a desalting column. All steps of the CsgA purification in the absence of guanidine hydrochloride were conducted in rapid succession with as little delay as possible. […] The ammonium sulfate pellet was washed with an equal volume of 100 mM ammonium acetate in ethanol, pelleted via centrifugation, washed twice with ethanol, dried overnight, resuspended in 10 mM Tris pH 7.4, and passed through a 50 kDa cut-off column. The assay was conducted in 96-well black microplates with a single glass 2 mm bead per well, 40 μM ThioflavinT, 1% DMSO, 2 μM CsgA, 50 μM α-synuclein, 100 mM sodium chloride, 9.3 mM potassium phosphate pH 7.3, and compounds at 50 μM. […] The effect of compounds on CsgA-seeded α-synuclein aggregation in the assay was determined with data from 40 hours, following the plateau of the fluorescent signal in the untreated (no compound) control wells containing CsgA and α-synuclein. Fluorescence values for each compound with CsgA and α-synuclein were first adjusted by subtracting the average fluorescence of the compound in the absence of CsgA and α-synuclein.

A further test addresses T3, E. coli CsgA (Escherichia coli, UniProt P28307).
T3 construct: made in house; host or cells: E. coli NEB 3016 slyD::kan, pET11d
Nature of the test: In vitro ThioflavinT assay of CsgA aggregation. Here is the method:
In Vitro ThioflavinT Assay to Determine Effects of Compounds on CsgA Aggregation.
To assess the effects of compounds on aggregation of E. coli CsgA, a cell-free assay was performed using purified CsgA and Thioflavin T. In the assay, histidine-tagged CsgA was over-expressed in E. coli NEB 3016 slyD::kan cells harboring a pET11d vector containing csgA with the sequence for 6 histidine residues added to the C-terminus and without the Sec signal (amino acid 1-22) sequence. To induce over-expression of CsgA, 0.5 mM isopropyl β-D-1-thiogalactopyranoside (“IPTG”) was added to cultures with an optical density at 600 nm (OD600) of 0.8-1, and induced cells were cultured at 37° C. for 1 hour prior to harvest via centrifugation. Cells were lysed under denaturing conditions with 8 M guanidine hydrochloride in 50 mM potassium phosphate buffer pH 7.3, and CsgA was purified via immobilized-metal affinity chromatography by batch purification with Nickel-NTA agarose and a combination of low pressure and gravity flow through a disposable polypropylene column, including washes under low pressure applied manually via application of a syringe plunger to the column with 50 mM potassium phosphate buffer pH 7.3 followed by 12.5 mM imidazole in 50 mM potassium phosphate buffer pH 7.3, and elution by gravity flow with 125 mM imidazole in 50 mM potassium phosphate buffer pH 7.3. Buffers with imidazole were freshly prepared prior to the protein purification. Purified CsgA was passed through a 30 kDa molecular weight cut-off filter and passed through a desalting column. All steps of the CsgA purification in the absence of guanidine hydrochloride were conducted in rapid succession with as little delay as possible. The assay was conducted in 96-well black microplates with 40 μM ThioflavinT, 1% DMSO, CsgA at 20 μM, and compounds at 20 μM. Plates were incubated at 25° C. in a Tecan Nano F200 plate reader with excitation at 438 nm using a 439 nm filter with a bandwidth of 8 nm, and emission at 495 nm with a 490 nm filter with a bandwidth of 10 nm. During the assay, plates were shaken initially for 5 seconds and subsequently for 3 seconds prior to fluorescent readings. Readings were performed every 20 minutes for up to 24 hours. The effect of compounds on CsgA aggregation in the assay was determined with data from 18 hours, following the plateau of the fluorescent signal in the untreated (no compound) control wells containing CsgA. Fluorescence values for each compound with CsgA were first adjusted by subtracting the average fluorescence of the compound in the absence of CsgA. These adjusted values were normalized by dividing them by the average fluorescence in the no-compound (i.e., untreated) control wells containing CsgA […], and the average normalized fluorescence with the compound was expressed as a percentage of the average fluorescence observed in untreated controls.

The mark [2] stands for this setting: read-out: Inhibition of Aggregation αSyn.
Setting [3] is: read-out: Inhibition of Aggregation αSyn (compound activity range).
Where [4] appears, read: compounds at 50 μM, 2 μM CsgA, 50 μM α-synuclein, ThT fluorescence at 40 hours, read-out: Inhibition of Aggregation CsgA-seeded αSyn.
Where [5] appears, read: compounds at 50 μM, 50 μM α-synuclein, ThT fluorescence at 40 hours, read-out: Inhibition of Aggregation αSyn.
The mark [6] stands for this setting: compounds at 50 μM, 50 μM α-synuclein, ThT fluorescence at 40 hours, read-out: Inhibition of Aggregation αSyn (compound activity range).
Where [7] appears, read: read-out: Inhibition of Aggregation CsgA (compound activity range), compounds at 20 μM, CsgA at 20 μM, ThT fluorescence at 18 hours.
Where [8] appears, read: read-out: Inhibition of Aggregation CsgA, compounds at 20 μM, CsgA at 20 μM, ThT fluorescence at 18 hours.
[9] abbreviates: 50 μM α-synuclein, ThT fluorescence at 40 hours, read-out: Inhibition of Aggregation αSyn.
Where [10] appears, read: 50 μM α-synuclein, ThT fluorescence at 40 hours, read-out: Inhibition of Aggregation αSyn (compound activity range).
The mark [11] stands for this setting: compounds at 50 μM, 2 μM CsgA, 50 μM α-synuclein, ThT fluorescence at 40 hours, read-out: Inhibition of Aggregation CsgA-seeded αSyn (compound activity range).

Eleven compounds from US11147792B2, “Inhibitors of microbially induced amyloid” (Axial Therapeutics, Inc, priority 2017, dated 2021) can be followed below.

Read-outs that look alike come from different tables or passages of the source.

T3 sequence (P28307 23-151): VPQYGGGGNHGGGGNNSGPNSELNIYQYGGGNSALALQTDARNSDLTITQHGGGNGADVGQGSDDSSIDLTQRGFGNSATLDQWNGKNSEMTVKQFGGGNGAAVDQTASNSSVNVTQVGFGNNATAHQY

With `COc1cc(/C=C/C(=O)/C=C(O)/C=C/c2ccc(O)c(OC)c2)ccc1O` [curcumin, (1E,6E)-1,7-Bis(4-hydroxy-3-methoxyphenyl)hepta-1,6-diene-3,5-dione], the inhibition (usually the change of the read-out against control, counted positive when it falls) at 50 µM at human α-synuclein (setting [2]) was 89%; on human α-synuclein (setting [3]) it was over 60%; in test [1] (setting [4]), 86%.

Consider `O=c1c(O)c(-c2ccc(O)cc2O)oc2cc(O)cc(O)c12` [morin, 2-(2,4-dihydroxyphenyl)-3,5,7-trihydroxychromen-4-one], for which the inhibition at 50 µM was 88% at human α-synuclein (setting [5]), over 60% on human α-synuclein (setting [6]) and 70% in test [1] (setting [4]). Further, the inhibition at 20 µM at E. coli CsgA (setting [7]) is over 60%; at E. coli CsgA (setting [8]), 69%.

On to `O=c1c(O)c(-c2ccc(O)c(O)c2)oc2cc(O)cc(O)c12` [quercetin, 2-(3,4-dihydroxyphenyl)-3,5,7-trihydroxychromen-4-one], for which the values for the inhibition at 1 µM at human α-synuclein (setting [9]) and at human α-synuclein (setting [10]) were 99% and over 60%, respectively. Moreover, the inhibition at 20 µM was 30 to 60% on E. coli CsgA (setting [7]) and 33% at E. coli CsgA (setting [8]).

`CCc1ccc(O)c(OC)c1` [4-ethyl guaiacol, 4-ethyl-2-methoxyphenol]: the inhibition at 50 µM is -2% on human α-synuclein (setting [5]), -10 to 10% on human α-synuclein (setting [6]), -10% in test [1] (read-out: Inhibition of Aggregation CsgA-seeded αSyn) and 30 to 60% in test [1] (read-out: Inhibition of Aggregation CsgA-seeded αSyn (compound activity range)). Moreover, on E. coli CsgA (compounds at 20 μM), the “Effect on CsgA aggregation (in words)” value is recorded as “relatively strong enhancement of CsgA aggregation”. Moreover, the inhibition at 20 µM on E. coli CsgA (setting [8]) is -82%.

For `Oc1ccc(/C=C/c2cc(O)cc(O)c2)cc1` [resveratrol, (E)-5-(4-hydroxystyryl)benzene-1,3-diol], the inhibition at 1 µM is 86% on human α-synuclein (setting [9]) and over 60% at human α-synuclein (setting [10]). Moreover, the “Inhibition of Aggregation CsgA (compound activity range)” value at E. coli CsgA (compounds at 20 μM, CsgA at 20 μM, ThT fluorescence at 18 hours, 20 µM) is reported as “(+++) to (++)”. In addition, the inhibition at 20 µM at E. coli CsgA (setting [7]) was over 60%; at E. coli CsgA (setting [8]), 62%.

Consider `C=CCc1ccc(OC)c(OC)c1` [4-allyl-1,2-dimethoxy-benzene, 4-allyl-1,2-dimethoxybenzene], for which, at human α-synuclein (compounds at 50 μM), the “Effect on α-synuclein aggregation (in words)” value was “without notable inhibition”. In addition, the inhibition at 50 µM at human α-synuclein (setting [2]) is 5%; on human α-synuclein (setting [3]), -10 to 10%; in test [1] (setting [4]), 36%; in test [1] (setting [11]), 30 to 60%. Moreover, in test [1] (compounds at 50 μM), the “Effect on CsgA-seeded α-synuclein aggregation (in words)” value was “demonstrated inhibition”. Also, the “Effect on CsgA aggregation (in words)” value at E. coli CsgA (compounds at 20 μM) was “without notable inhibition”. For the same compound, the inhibition at 20 µM at E. coli CsgA (setting [7]) was under -10%; at E. coli CsgA (setting [8]) it was -18%.

On to `COc1ccccc1O` [guaiacol, 2-methoxyphenol], for which, at human α-synuclein (compounds at 50 μM), the “Effect on α-synuclein aggregation (in words)” value is on record as “without notable inhibition”. The inhibition at 50 µM at human α-synuclein (setting [5]) is -2%; at human α-synuclein (setting [6]), -10 to 10%; in test [1] (setting [4]), 40%; in test [1] (setting [11]), 30 to 60%. The “Effect on CsgA-seeded α-synuclein aggregation (in words)” value in test [1] (compounds at 50 μM) is “demonstrated inhibition”. In addition, the “Effect on CsgA aggregation (in words)” value on E. coli CsgA (compounds at 20 μM) was “without notable inhibition”. Besides, the results for the inhibition at 20 µM at E. coli CsgA (setting [7]) and at E. coli CsgA (setting [8]) were -10 to 10% and -5%, respectively.

With `O=c1cc(-c2ccc(O)cc2)oc2cc(O)cc(O)c12` [apigenin, 5,7-dihydroxy-2-(4-hydroxyphenyl)-4H-1-benzopyran-4-one], the inhibition at 1 µM is 56% at human α-synuclein (setting [9]) and 30 to 60% on human α-synuclein (setting [10]).

Regarding `Brc1cccc(-c2cc(-c3ccc4c(c3)OCO4)n[nH]2)c1` [Anle 138b, reference compound], at E. coli CsgA (compounds at 20 μM), the “Effect on CsgA aggregation (in words)” value was “relatively little to no effect”. Moreover, the inhibition at 20 µM was -10 to 10% at E. coli CsgA (setting [7]) and 9% on E. coli CsgA (setting [8]).

As for `O=C(/C=C/c1ccc(O)c(O)c1)O[C@H](Cc1ccc(O)c(O)c1)C(=O)O` [rosmarinic acid], the inhibition at 1 µM was 99% at human α-synuclein (setting [9]) and over 60% at human α-synuclein (setting [10]). Moreover, the inhibition at 20 µM at E. coli CsgA (setting [7]) is 30 to 60%; on E. coli CsgA (setting [8]), 48%.

With `O=c1c(-c2ccc(O)cc2)coc2cc(O)cc(O)c12` [genistein, 5,7-dihydroxy-3-(4-hydroxyphenyl)chromen-4-one], the inhibition at 1 µM at human α-synuclein (setting [9]) is 40%; on human α-synuclein (setting [10]) it was 30 to 60%.
